Assay results as given in patent US20250195536A1, “BICYCLOOCTANE KRAS INHIBITORS” (Incyte Corporation, priority 2023, published 2025).

Tests used:
[1] = biological target: KRAS G12V (Homo sapiens, UniProt P01116, G12V); experiment: GDP-GTP exchange assay (KRAS G12V); type: biochemical; conditions: bodipy-GDP/GppNHp exchange with SOS1; 3 h incubation after GppNHp-SOS1;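 also: one dagger IC50 up to 100 nM and two daggers above 100 nM up to 1 μM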
Method in brief: (§1)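 IC50 came from a four-parameter fit of fluorescence loss (485/520 nm) as SOS1 (150 nM) swapped bodipy-GDP for GppNHp (500 μM) on 2.5 nM KRAS, final concentrations. Compounds were pre-incubated 4 h at r.t. (pH 7.5 Hepes, 10 mM MgCl2); exchange ran 2 h (G12D) or 3 h (G12V).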

[2] = Caco2 assay (permeability, Papp A-B); type: in vitro ADME; conditions: human, Caco-2, absorptive direction (A-B), 50 μM test compound, 4% BSA in receiver
Method in brief: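 Absorptive (A-B) Papp: 50 μM test compound in HBSS added to apical side of 22-25-day Caco-2 monolayers (TEER 300 Ω·cm^2), receiver buffer containing 4% BSA. After 120 min at 37 °C, 5% CO2, both sides analysed by LCMS; Papp calculated from flux rate normalized to area and donor amount.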

[3] = biological target: KRAS G12D (Homo sapiens, UniProt P01116, G12D); experiment: GDP-GTP exchange assay (KRAS G12D); type: biochemical; conditions: bodipy-GDP/GppNHp exchange with SOS1; 4 h pre-incubation, 2 h reaction;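 also: one dagger IC50 up to 100 nM and two daggers above 100 nM up to 1 μM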
KRAS G12D, sequence (P01116 1-188 isoform P01116-2 G12D): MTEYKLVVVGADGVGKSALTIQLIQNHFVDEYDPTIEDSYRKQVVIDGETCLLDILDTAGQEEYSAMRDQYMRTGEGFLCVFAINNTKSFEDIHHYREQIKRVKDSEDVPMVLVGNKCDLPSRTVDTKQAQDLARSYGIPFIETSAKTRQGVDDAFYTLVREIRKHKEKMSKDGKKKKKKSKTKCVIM
Method in brief: as §1

KRAS G12V, sequence (P01116 1-188 isoform P01116-2 G12V): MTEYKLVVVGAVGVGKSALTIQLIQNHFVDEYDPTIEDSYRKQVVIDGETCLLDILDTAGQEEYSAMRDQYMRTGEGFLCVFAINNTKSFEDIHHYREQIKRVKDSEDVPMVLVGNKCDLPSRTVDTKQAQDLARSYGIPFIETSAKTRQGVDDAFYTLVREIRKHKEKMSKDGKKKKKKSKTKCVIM

Row | SMILES | G12V_exchange (KRAS_G12V exchange assay IC50) [1] | Papp A→B at 120 min, 50 μM [2] | G12D_exchange (KRAS_G12D exchange assay IC50) [3]
1 | Cc1nc2c(F)c(-c3cccc(Cl)c3Cl)c(CCC#N)cc2c2c1cc([C@H]1[C@H]3C[C@H](CN(c4cccc(OC(F)F)n4)C3)N1C(=O)C1CC1)n2[C@H]1[C@H]2CN[C@@H]1C2 (atropisomer, axis not shown; (Ra)) [Example 86, 3-((Ra)-1-((1R,4R,5S)-2-azabicyclo[2.1.1]hexan-5-yl)-2-((1S,5R,7R)-6-(cyclopropanecarbonyl)-3-(6-(difluoromethoxy)pyridin-2-yl)-3,6-diazabicyclo[3.2.1]octan-7-yl)-7-(2,3-dichlorophenyl)-6-fluoro-4-methyl-1H-pyrrolo[3,2-c]quinolin-8-yl)propanenitrile] | † | ≤ 0.5 ×10⁻⁶ cm/s | †
2 | Cc1nc2c(F)c(-c3cccc(Cl)c3Cl)c(CCC#N)cc2c2c1cc([C@H]1[C@H]3C[C@H](CN(c4ccnc(C(F)F)c4)C3)N1C(=O)C1CC1)n2[C@H]1[C@H]2CN[C@@H]1C2 (atropisomer, axis not shown; (Ra)) [Example 60, 3-((Ra)-1-((1R,4R,5S)-2-azabicyclo[2.1.1]hexan-5-yl)-2-((1S,5R,7R)-6-(cyclopropanecarbonyl)-3-(2-(difluoromethyl)pyridin-4-yl)-3,6-diazabicyclo[3.2.1]octan-7-yl)-7-(2,3-dichlorophenyl)-6-fluoro-4-methyl-1H-pyrrolo[3,2-c]quinolin-8-yl)propanenitrile] | † | ≤ 0.5 ×10⁻⁶ cm/s | †
3 | Cc1nc2c(F)c(-c3cccc(Cl)c3Cl)c(CCC#N)cc2c2c1cc([C@H]1C[C@H]3C[C@H](CN3c3ccccn3)N1C(=O)C1CC1)n2[C@H]1[C@H]2CN[C@@H]1C2 (atropisomer, axis not shown; (Ra)) [Example 118, 3-((Ra)-1-((1R,4R,5S)-2-Azabicyclo[2.1.1]hexan-5-yl)-2-((1R,3R,5R)-2-(cyclopropanecarbonyl)-6-(pyridin-2-yl)-2,6-diazabicyclo[3.2.1]octan-3-yl)-7-(2,3-dichlorophenyl)-6-fluoro-4-methyl-1H-pyrrolo[3,2-c]quinolin-8-yl)propanenitrile] | † | ≤ 0.5 ×10⁻⁶ cm/s | †
